From patent US11299760B2 (Amgen Inc., priority 2013, dated 2022)

Tests used:
Assay type in all cases: cell-based, Chinese hamster
[1] = test system: production cell lines (MAb A, MAb B, MAb C, MAb D); experiment: mock perfusion assay, glycan analysis, all four production cell lines
Description: (§1) Mock perfusion assay is a small scale, plate-based assay that is designed to mimic perfusion conditions in bioreactors through daily medium exchanges. For a 10-day mock perfusion assay, passaging cultures of various production cell lines were diluted 1:5 into chemically defined base perfusion medium in a 24 deep-well plate at a final volume of 3 ml per well. Mock perfusion was initiated on day 3 when the cells were spun down at 1000 rpm for 5 minutes and 25% of each spent culture medium was exchanged with the equivalent volume of fresh perfusion media. Subsequent medium exchange percentages were 40% on days 4-8 and 50% on day 9. Exchanged supernatants were stored at 4° C. prior to analysis.
(§2) Analysis of cell culture parameters was also started on day 3; viable cell density and viability were analyzed using the ViaCount Guava assay as previously described. Glucose was measured daily starting on day 3 and was maintained at 12 g/l. Stored supernatants were analyzed for antibody titer as described previously. Samples of supernatant fluid from days 6, 8 and 10 were also analyzed for the presence and type of glycans by HILIC analysis.
The cell lines used included three production cell lines that are known to generate mAbs with low high mannose glycans (MAb A, MAb B and MAb C) and one production cell line that consistently produces product with high levels of high mannose glycans (MAb D). […]

Cells producing MAb C = experiment: mock perfusion assay, cell culture parameters; details: for CVCD / Cumulative Titer / End of Production Viability / qP: MAb C
Description: as §1, §2
(§3) The cell lines used included three production cell lines that are known to generate mAbs with low high mannose glycans (MAb A, MAb B and MAb C) and one production cell line that consistently produces product with high levels of high mannose glycans (MAb D). […] Equivalent volumes of methanol were added daily to control cultures (columns 1 and 2 of the 24-well plate). This scheme is depicted below:
(§4) Viable cell density (VCD) and viability were measured daily starting on day 3. Spent medium samples were collected on days 3-10 and were subjected to titer analysis. Viable cell densities were used to calculate cumulative viable cell densities, which were along with cumulative titer values used to calculate specific productivities (qP). Every value shown is an average of duplicates.

Cells producing MAb A = experiment: mock perfusion assay, cell culture parameters; details: for CVCD / Cumulative Titer / End of Production Viability / qP: MAb A
Description: as §1, §2, §3, §4

Cells producing MAb D = experiment: mock perfusion assay, cell culture parameters; details: for CVCD / Cumulative Titer / End of Production Viability / qP: MAb D
Description: as §1, §2, §3, §4

Cells producing MAb B = experiment: mock perfusion assay, cell culture parameters; details: for CVCD / Cumulative Titer / End of Production Viability / qP: MAb B
Description: as §1, §2, §3, §4

[2] = test system: recombinant CHO cell line producing an antibody (MAb A); experiment: six day batch assay, cell culture parameters (VCD, viability, titer); details: for Titer / VCD / Viability: day 6
Description: Cells were centrifuged at 1500 rpm for five minutes and seeded at 2×10^6 cells per ml into batch production medium in a 24 deep-well plate at a final volume of 3 ml.
Cell density and viability were measured by Guava easyCyte flow cytometer (Milipore, Billerica, Mass.) with the ViaCount application. Cultures were spun down, supernatants were filtered on 0.4 micron filters, and were analyzed for titer and glycan distribution.
Antibody titer was measured by loading filtered cell culture supernatants over a POROS A/20 Protein A column (Applied Biosystems, Carlsbad, Calif.) equilibrated with 20 mM Tris, […], pH 7.0 buffer. Antibody elution was performed with 220 mM acetic acid, […], pH 2.6 buffer at a mobile phase flow rate of 4.0 ml/min. Eluted antibody was detected at a wavelength of 280 nm. Antibody concentration was determined based on a standard curve with a reference antibody standard. For high molecular weight measurement, antibodies were purified from spent medium supernatants on ATOLL columns (ATOLL-Bio Inc USA, Lawrance, Kans.) and were then analyzed using size exclusion chromatography.
Cell culture performance was assessed via viable cell density (VCD), viability and titer measurements of harvested samples. Each bar represents an average result for duplicate cell culture samples. Each value is an average of duplicates.

[3] = increasing monensin (to 100 nM)

`CC[C@@]1([C@@H]2O[C@@H]([C@H]3O[C@@](O)(CO)[C@H](C)C[C@@H]3C)C[C@@H]2C)CC[C@H]([C@]2(C)CC[C@]3(C[C@H](O)[C@@H](C)[C@@H]([C@@H](C)[C@@H](OC)[C@H](C)C(=O)O)O3)O2)O1` [monensin] was tested, and the “effect on high mannose glycans” value ([1]; all four antibody products, mock perfusion) was “increased high mannose glycans on all four antibody products tested in a dose dependent manner”, the “increase of high mannose levels compared to the control samples” value ([1]; antibodies collected on day 10, depending on the monensin dose) was 1.5 to 15 fold and the “effect on cumulative viable cell density and viability” value (Cells producing MAb C; MAb C cells, mock perfusion) was “slightly increased cumulative viable cell density and improved the viability”. The “effect on titer and specific productivity” value (Cells producing MAb C; MAb C cells, mock perfusion) was “increased titer but slightly lower specific productivity”, the “titer and cell culture impacts” value (Cells producing MAb C; MAb C cells, mock perfusion with monensin) was “no drop in titer or any other negative cell culture impacts” and the CVCD (Cells producing MAb C; constant monensin 25 nM) was 215 10^6 c-day/ml. The “Cumulative Titer” value (Cells producing MAb C; constant monensin 25 nM) was 7.4 g/L, the “End of Production Viability” value (Cells producing MAb C; constant monensin 25 nM) was 77% and the qP (Cells producing MAb C; constant monensin 25 nM) was 34 pg/c/d. For the same compound, the CVCD (Cells producing MAb C; [3]) was 208 10^6 c-day/ml, the “Cumulative Titer” value (Cells producing MAb C; [3]) was 7.1 g/L and the “End of Production Viability” value (Cells producing MAb C; [3]) was 77%. For the same compound, the qP (Cells producing MAb C; [3]) was 34 pg/c/d, the “effect on cell growth” value (Cells producing MAb A; MAb A cells, mock perfusion) was “decrease in total cell mass accumulation” and the “effect on titer and specific productivity” value (Cells producing MAb A; MAb A cells, mock perfusion) was “decreased titer but increased specific productivity”. For the same compound, the CVCD (Cells producing MAb A; constant monensin 25 nM) was 57 10^6 c-day/ml, the “Cumulative Titer” value (Cells producing MAb A; constant monensin 25 nM) was 5.9 g/L and the “End of Production Viability” value (Cells producing MAb A; constant monensin 25 nM) was 78%. The qP (Cells producing MAb A; constant monensin 25 nM) was 103 pg/c/d, the CVCD (Cells producing MAb A; increasing monensin (to 50 nM)) was 57 10^6 c-day/ml and the “Cumulative Titer” value (Cells producing MAb A; increasing monensin (to 50 nM)) was 5.8 g/L. The “End of Production Viability” value (Cells producing MAb A; increasing monensin (to 50 nM)) was 80%, the qP (Cells producing MAb A; increasing monensin (to 50 nM)) was 101 pg/c/d and the “effect on cell growth” value (Cells producing MAb D; MAb D cells, mock perfusion) was “similar, though not as pronounced, negative growth impact”. The “effect on titer and specific productivity” value (Cells producing MAb D; MAb D cells, mock perfusion) was “slightly decreased the titer of MAb D cells but had no effect on specific productivity”, the CVCD (Cells producing MAb D; constant monensin 25 nM) was 104 10^6 c-day/ml and the “Cumulative Titer” value (Cells producing MAb D; constant monensin 25 nM) was 4.5 g/L. The “End of Production Viability” value (Cells producing MAb D; constant monensin 25 nM) was 68%, the qP (Cells producing MAb D; constant monensin 25 nM) was 43 pg/c/d and the CVCD (Cells producing MAb D; [3]) was 89 10^6 c-day/ml. The “Cumulative Titer” value (Cells producing MAb D; [3]) was 3.6 g/L, the “End of Production Viability” value (Cells producing MAb D; [3]) was 53% and the qP (Cells producing MAb D; [3]) was 41 pg/c/d. The “effect on growth or viability” value (Cells producing MAb B; MAb B cells, mock perfusion) was “no effect on the growth or viability”, the “effect on titer and specific productivity” value (Cells producing MAb B; MAb B cells, mock perfusion) was “no impact on either titer or specific productivity” and the CVCD (Cells producing MAb B; constant monensin 25 nM) was 89 10^6 c-day/ml. The “Cumulative Titer” value (Cells producing MAb B; constant monensin 25 nM) was 3.5 g/L, the “End of Production Viability” value (Cells producing MAb B; constant monensin 25 nM) was 85% and the qP (Cells producing MAb B; constant monensin 25 nM) was 40 pg/c/d. The CVCD (Cells producing MAb B; [3]) was 88 10^6 c-day/ml, the “Cumulative Titer” value (Cells producing MAb B; [3]) was 3.6 g/L and the “End of Production Viability” value (Cells producing MAb B; [3]) was 83%. For the same compound, the qP (Cells producing MAb B; [3]) was 40 pg/c/d, the Titer ([2]; 0.1 nM monensin added day 1) was 3.835 g/L and the VCD ([2]; 0.1 nM monensin added day 1) was 10 10^6c/ml. The Viability ([2]; 0.1 nM monensin added day 1) was 81%, the Titer ([2]; 0.5 nM monensin added day 1) was 4.415 g/L and the VCD ([2]; 0.5 nM monensin added day 1) was 11 10^6c/ml. For the same compound, the Viability ([2]; 0.5 nM monensin added day 1) was 81%, the Titer ([2]; 1 nM monensin added day 1) was 4.265 g/L and the VCD ([2]; 1 nM monensin added day 1) was 11 10^6c/ml. For the same compound, the Viability ([2]; 1 nM monensin added day 1) was 82%, the Titer ([2]; 5 nM monensin added day 1) was 3.45 g/L and the VCD ([2]; 5 nM monensin added day 1) was 11 10^6c/ml. The Viability ([2]; 5 nM monensin added day 1) was 82%, the Titer ([2]; 10 nM monensin added day 1) was 3.635 g/L and the VCD ([2]; 10 nM monensin added day 1) was 11 10^6c/ml. For the same compound, the Viability ([2]; 10 nM monensin added day 1) was 81%, the “impact on cell culture parameters” value ([2]; 25 nM bolus on day 0 or 200 nM or 100 nM bolus on day 3) was “no negative impact on cell culture parameters” and the Titer ([2]; 25 nM monensin added day 1) was 5.22 g/L. The VCD ([2]; 25 nM monensin added day 1) was 11 10^6c/ml, the Viability ([2]; 25 nM monensin added day 1) was 85% and the Titer ([2]; 50 nM monensin added day 1) was 2.025 g/L. The VCD ([2]; 50 nM monensin added day 1) was 5 10^6c/ml, the Viability ([2]; 50 nM monensin added day 1) was 72% and the Titer ([2]; 100 nM monensin added day 3) was 3.515 g/L. The VCD ([2]; 100 nM monensin added day 3) was 11 10^6c/ml, the Viability ([2]; 100 nM monensin added day 3) was 86% and the Titer ([2]; 200 nM monensin added day 3) was 4.43 g/L. For the same compound, the VCD ([2]; 200 nM monensin added day 3) was 11 10^6c/ml, the Viability ([2]; 200 nM monensin added day 3) was 87% and the Titer ([2]; 500 nM monensin added day 3) was 3.055 g/L. For the same compound, the VCD ([2]; 500 nM monensin added day 3) was 5 10^6c/ml and the Viability ([2]; 500 nM monensin added day 3) was 41%.
